Measured values taken from patent publication US10898577B2, “Conjugate of ginsenoside compound K and glycol chitosan and an anti-tumor use thereof” (priority 2015, dated 2021).

System: HT-29 (human colon cancer) cell line
Protocol: To observe the anticancer activity of the GC-CK conjugates, the cytotoxicity of pure GC, CK, and GC-CK conjugates were confirmed in anticancer cells by MTT assay.
Specifically, the HT-29 (human colon cancer) cell line was purchased from the Korean Cell Line Bank (Seoul, Korea) and cultured in RPMI 1640 medium (Welgene, Inc.) containing 1% (w/v) penicillin-streptomycin (Welgene, Inc.) and 10% (v/v) FBS (Welgene, Inc.) in 5% CO2 and 95% humidity at 37° C. The cells were inoculated at a density of 2×10^4 cells/well in 96-well plates (SPL Life Sciences, Korea). After growing for 24 h, the culture medium was replaced with the culture medium containing 100 μL, of various concentrations of GC, standard GC, and GC-CK and cultured for 24 h at 37° C. Next, 10 μL of 3-(4, 5-dimethylthiazol-2-yl)-2, 5-diphenyl-tertazolium bromide) (MTT) was added and the plates were cultured for 3 hours at 37° C. The culture medium was then removed and blue formazan crystals were dissolved with 100 μL of DMSO. The optical density was measured at 570 nm using a Synergy HT multidetection microplate reader (Molecular Devices, BioTek Instruments, Winooski, Vt., USA).

Substance: Glycol chitosan [GC]
- cytotoxicity in HT29 cells: did not exhibit any cytotoxicity
